Earlier results on one sequence are cited in patent US20170157228A1, “Immunogenic Polypeptide Composed of HLA-B7 Restricted Tumor Antigen-Derived Optimized Cryptic Peptides, and Uses Thereof” (VAXON BIOTECH, priority 2014, published 2017).

This data set relates to MAGE-A antigens / tumour cells. To be noted: recognition of cells loaded with MAGE-A273A6, MAGE-A273I6, MAGE-A273V6; cited from earlier work.

For the sequence GPRALVETL (7M1M), the “MAGE-A antigens targeted by elicited CTLs” value is “targeted six MAGE-A antigens (-A1, -A2, -A3, -A4, -A6, and -A12)”.
